Columns and labels:
[1] = system: HBL-1 cells; test: cells; settings: HBL1, 96 h
[2] = system: OCI-Ly10 cells; test: B-cell lymphoma cell proliferation (WST-1 assay), OCI-Ly10; format: cell-based; settings: Homo sapiens, 72 h; OCI-Ly10, 3 days of incubation
Experimental: (§1) Cell proliferation was determined using the WST-1 assay (Roche, Mannheim, Germany), which measures the metabolic activity of the cells. Briefly, 5×10^5 TMD-8, OCI-Ly3, and OCI-Ly10 cells/well and 10×10^5 HBL-1 cells/well were seeded in triplicate in 96-well plates and were incubated with various concentrations of compounds to be tested for 3 days. The cell proliferation reagent WST-1 (10 μl/well) was added to the cells for 1-2 hours depending on the cell type which were cultured in 200 μl of medium. The absorbance was then measured with an enzyme-linked immunosorbent assay plate reader at a wavelength of 450 nm.

[3] = system: phosphorylation of BLNK in Ramos B cells; test: Anti IgM-induced phosphorylation of BLNK in Ramos B cells; format: cell-based; settings: Homo sapiens, 0.25 h, anti IgM 15 min, flow cytometry anti-BLNK (pY84)
Experimental: Anti IgM-induced phosphorylation of BLNK (BLNK=B cell linker (SLP65=SH2 domain containing leukocyte protein of 65 kDa)) in Ramos B cells: Ramos B cells in a volume of 25 μl were incubated with 25 μl of the compound solution at 2-fold the desired final concentration for 30 min. at 37° C. Then 50 μL anti IgM was added, mixed and incubated for 15 min. at 37° C. In each experiment 8-fold serial dilutions of compounds were tested. The stimulation was stopped by addition of 100 μL/well of PFA (para formaldehyde) I PBS (phosphate buffered saline) (final conc. 2% PFA) for fixation and incubated for 15 min. at 37° C., then centrifuged at 1300 rpm for 3 min and permeabilized by resuspending the cell pellet in 100 μL methanol 90% and further incubated for 30 min at 4° C. The cells were then washed and phosphoproteins were detected by flow cytometry using fluorescently labeled anti-BLNK ([…]) (BD Biosciences).

[4] = system: OCI-Ly3 cells; test: B-cell lymphoma cell proliferation (WST-1 assay), OCI-Ly3; format: cell-based; settings: OCI-Ly3, 3 days of incubation
Experimental: as §1, with “Briefly, 5×10^5 TMD-8, OCI-Ly3, and OCI-Ly10 cells/well and 10×10^5 HBL-1 cells/well were seeded in triplicate in 96-well plates and were incubated with various concentrations of compounds to be tested for 3 days.” left out

[5] = system: TMD-8 cells; test: cells; settings: Homo sapiens, TMD8, 96 h
[6] = biological target: T1, hERG channel (Homo sapiens, UniProt Q12809); test: Inhibition of the hERG channel (manual patch clamp assay); format: cell-based; settings: HEK293 cells stably transfected with hERG cDNA, whole-cell patch clamp, tail current
T1 construct: host or cells: HEK293
T1 sequence (Q12809 whole entry): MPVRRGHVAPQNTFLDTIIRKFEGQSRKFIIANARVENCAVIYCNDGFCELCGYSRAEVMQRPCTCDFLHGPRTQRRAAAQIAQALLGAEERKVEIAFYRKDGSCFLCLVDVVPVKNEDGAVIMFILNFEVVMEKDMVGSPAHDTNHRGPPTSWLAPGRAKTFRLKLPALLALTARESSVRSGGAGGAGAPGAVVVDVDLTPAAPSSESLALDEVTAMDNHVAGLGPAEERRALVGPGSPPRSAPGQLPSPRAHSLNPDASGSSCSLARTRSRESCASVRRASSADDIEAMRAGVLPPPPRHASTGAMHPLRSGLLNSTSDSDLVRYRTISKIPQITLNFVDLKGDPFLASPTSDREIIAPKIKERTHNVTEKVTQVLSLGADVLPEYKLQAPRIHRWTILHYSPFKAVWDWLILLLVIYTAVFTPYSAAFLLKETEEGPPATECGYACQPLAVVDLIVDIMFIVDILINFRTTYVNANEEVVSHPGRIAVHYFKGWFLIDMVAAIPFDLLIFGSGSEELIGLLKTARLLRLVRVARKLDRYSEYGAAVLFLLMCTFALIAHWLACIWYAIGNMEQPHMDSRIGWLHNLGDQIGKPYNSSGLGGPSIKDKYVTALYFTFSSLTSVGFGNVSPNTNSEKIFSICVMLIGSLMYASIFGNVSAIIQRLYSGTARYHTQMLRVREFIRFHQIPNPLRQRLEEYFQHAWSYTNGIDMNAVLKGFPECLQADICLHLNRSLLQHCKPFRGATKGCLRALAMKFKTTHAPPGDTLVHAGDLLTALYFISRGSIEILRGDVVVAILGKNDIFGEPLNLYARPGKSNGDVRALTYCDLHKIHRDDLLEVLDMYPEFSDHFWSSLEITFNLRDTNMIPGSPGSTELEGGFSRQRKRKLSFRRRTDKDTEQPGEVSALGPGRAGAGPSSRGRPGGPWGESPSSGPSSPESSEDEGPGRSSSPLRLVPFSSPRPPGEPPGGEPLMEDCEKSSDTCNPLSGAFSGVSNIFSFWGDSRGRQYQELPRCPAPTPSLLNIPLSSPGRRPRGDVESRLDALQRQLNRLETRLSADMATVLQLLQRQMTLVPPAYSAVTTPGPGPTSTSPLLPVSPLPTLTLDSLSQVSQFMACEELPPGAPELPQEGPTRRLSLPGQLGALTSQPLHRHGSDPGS
Description: The hERG patch clamp assay was done according to standard procedures used in Genetic Toxicology and Safety Pharmacology, based on recommendations and descriptions of methods in the literature, and according to current guidelines (ICH S7B, The non clinical evaluation of the potential for delayed ventricular repolarization (QT interval prolongation) by human pharmaceuticals, 2005). The purpose of the study is to assess the effect of the test item ABC123 on tail current recorded from HEK293 cells stably transfected with hERG cDNA. The HEK293 cells, which have been stably transfected with hERG cDNA, are a model considered to be suitable for this purpose (Zhou et al., 1998). Repolarisation of cardiac ventricular myocytes is mainly due to outward potassium currents. The most important current in humans is the delayed rectifier potassium current, IK, which has both rapidly and slowly activating components (IKr and IKs) (Sanguinetti and Jurkiewicz, 1990). The human ether-a-gogo-related-gene (hERG) encodes the major protein underlying IKr. Thus, inhibition of hERG potassium channels may lead to delayed cardiac repolarisation (Sanguinetti et al., 1995). Prolongation of cardiac repolarisation is a side effect that can be associated with some drug therapies. This proarrhythmic alteration is characterised by a prolongation of the QT interval in the surface electrocardiogram and is of particular concern because it may lead to the development of polymorphic ventricular arrhythmias like torsade de pointes (for review see: Vandenberg, Walker and Campbell, 2001). […] HERG HEK (HEK293 cells stably transfected with hERG cDNA) obtained from the University of Wisconsin were used. For the experiments the cells were plated onto sterile Thermanox plastic coverslips (Nalge Nunc International) in 6-well plates. The dishes were stored in a humidified, gassed incubator. The coverslips with cells were transferred to the recording chamber and continuously superfused (at approximately 1-2 ml/min) with vehicle. The temperature of the vehicle in the bath chamber was regulated by temperature controllers to 35° C.±2.0° C. hERG currents were measured in the whole-cell patch-clamp configuration. Once a stable patch clamp configuration was achieved, recording commenced in voltage-clamp mode, with the cell initially clamped at -75 mV. hERG current was observed and recorded if a stable hERG tail current response could be induced. […] The hERG HEK293 cells were treated approximately 9 min with the test item. The following voltage protocol was applied to induce hERG currents: The step from -75 mV to +10 mV activates an outward current (i.e. current flows out of the cell) and the step from +10 mV to -40 mV produces the tail current (the tail current represents the time taken for the current to turn off). […] The leak current was recorded and subtracted by a P/3n pulse between the voltage pulses (0.1 Hz).

NC(=O)c1nnc(N[C@@H]2CCCC[C@@H]2N)nc1Nc1cccc2cc[nH]c12 [Example 1.1, 3-((1R,2S)-2-Amino-cyclohexylamino)-5-(1H-indol-7-ylamino)-[1,2,4]triazine-6-carboxylic acid amide]
GI50 [1]: 105 nM | GI50 [2]: 25 nM | IC50 [3]: 106 nM | GI50 [4]: No inhibition | GI50 [5]: 281 nM | inhibition at 9 min, 10 µM ([6]; at 10 uM): -5 ± 4% | inhibition at 9 min, 30 µM ([6]; at 30 uM): 12 ± 6%

Reference: patent US20130310387A1, “Monocyclic Heteroaryl Cycloalkyldiamine Derivatives” (NOVARTIS AG, priority 2012, published 2013)
